The OligoGym collection
Values joined by “and” are separate entries in the source; they are usually repeats but may differ in a detail not shown here. Equal entries are not always repeated. HELM strings list units from the 5' end as sugar, base in round brackets, then linkage (d deoxyribose, r ribose, m 2'-O-methyl, p phosphodiester). Strings are as the collection lists them, not checked against the first reports. ss, as = sense and antisense strand; [lna] = locked nucleic acid (LNA)

Conditions: siRNA
Note: test system not given here.

Substance	target mRNA knockdown
RNA1{r(U)p.r(U)p.m(A)p.m(C)p.r(A)p.r(A)p.r(A)p.r(G)p.r(G)p.r(A)p.r(U)p.r(C)p.r(U)p.r(C)p.r(C)p.r(U)p.r(C)p.r(C)p.r(C)p.r(T)p.r(T)}|RNA2{r(G)p.r(G)p.r(G)p.r(A)p.r(G)p.r(G)p.r(A)p.r(G)p.r(A)p.r(U)p.r(C)p.r(C)p.r(U)p.r(U)p.r(U)p.r(G)p.m(U)p.r(A)p.r(A)p.r(T)p.r(T)}$$$RNA1{StrandType:ss}|RNA2{StrandType:as}$	74%
RNA1{r(C)p.r(U)p.r(U)p.r(A)p.r(C)p.r(G)p.r(C)p.r(U)p.r(C)p.r(U)p.r(G)p.r(U)p.r(A)p.r(C)p.r(U)p.r(U)p.r(C)p.r(G)p.r(A)p.d(T)p.d(T)}|RNA2{r(U)p.r(C)p.r(G)p.r(A)p.r(A)p.r(G)p.r(U)p.r(A)p.r(C)p.r(U)p.r(C)p.r(A)p.r(G)p.r(C)p.r(G)p.r(U)p.r(A)p.r(A)p.r(G)p.d(T)p.d(T)}$$$RNA1{StrandType:ss}|RNA2{StrandType:as}$	92% and 94%
RNA1{m(C)p.r(C)p.m(U)p.r(C)p.m(C)p.r(C)p.m(C)p.r(A)p.m(U)p.r(C)p.m(C)p.r(C)p.m(C)p.r(U)p.m(U)p.r(U)p.m(U)p.r(A)p.m(A)p.r(T)p.r(T)}|RNA2{r(U)p.r(U)p.r(A)p.r(A)p.r(A)p.r(A)p.r(G)p.r(G)p.r(G)p.r(G)p.r(A)p.r(U)p.m(G)p.r(G)p.m(G)p.r(G)p.m(A)p.r(G)p.m(G)p.r(T)p.r(T)}$$$RNA1{StrandType:ss}|RNA2{StrandType:as}$	48%
RNA1{r(G)p.r(A)p.r(C)p.r(G)p.r(U)p.r(A)p.r(A)p.r(A)p.r(C)p.r(G)p.r(G)p.r(C)p.r(C)p.r(A)p.r(C)p.r(A)p.r(A)p.r(G)p.r(U)p.r(U)p.r(C)}|RNA2{r(A)p.r(C)p.[lna](T)p.r(U)p.r(G)p.[lna](T)p.r(G)p.r(G)p.r(C)p.r(C)p.r(G)p.r(U)p.r(U)p.[lna](T)p.r(A)p.r(C)p.r(G)p.[lna](T)p.r(C)p.[lna](G)p.[lna](C)}$$$RNA1{StrandType:ss}|RNA2{StrandType:as}$	0%
RNA1{r(C)p.r(U)p.r(U)p.r(A)p.r(C)p.r(G)p.r(C)p.r(U)p.r(G)p.r(A)p.r(G)p.r(U)p.r(A)p.r(C)p.r(U)p.r(U)p.r(C)p.r(G)p.r(A)p.r(T)p.r(T)}|RNA2{r(T)p.r(C)p.r(G)p.r(A)p.r(A)p.r(G)p.[lna](T)p.r(A)p.r(C)p.r(U)p.r(C)p.r(A)p.r(G)p.r(C)p.r(G)p.r(U)p.r(A)p.r(A)p.r(G)p.[lna](T)p.[lna](T)}$$$RNA1{StrandType:ss}|RNA2{StrandType:as}$	93%
RNA1{m(A)p.m(A)p.r(C)p.r(C)p.r(C)p.m(A)p.r(C)p.r(C)p.m(A)p.r(C)p.m(A)p.r(G)p.r(C)p.m(U)p.m(A)p.r(G)p.m(A)p.m(A)p.r(C)p.r(U)p.r(U)}|RNA2{r(A)p.r(A)p.r(G)p.r(U)p.r(U)p.r(C)p.m(U)p.r(A)p.r(G)p.r(C)p.r(U)p.r(G)p.r(U)p.r(G)p.r(G)p.r(U)p.r(G)p.r(G)p.r(G)p.r(U)p.r(U)}$$$RNA1{StrandType:ss}|RNA2{StrandType:as}$	32%
RNA1{r(A)p.r(U)p.r(C)p.r(U)p.r(G)p.r(A)p.r(A)p.r(G)p.r(A)p.r(A)p.r(G)p.r(G)p.r(A)p.r(G)p.r(A)p.r(A)p.r(A)p.r(A)p.r(A)p.r(T)p.r(T)}|RNA2{[lna](T)p.r(U)p.r(U)p.r(U)p.r(U)p.r(C)p.r(U)p.r(C)p.r(C)p.r(U)p.r(U)p.r(C)p.r(U)p.r(U)p.r(C)p.r(A)p.r(G)p.r(A)p.r(U)p.[lna](T)p.[lna](T)}$$$RNA1{StrandType:ss}|RNA2{StrandType:as}$	22%
